Results: patent US20030180304A1, “Secretory tyrosine phosphatases from mycobacteria” (priority 2000, published 2003)
“Also recorded” adds a separate entry of the source.

Tests used:
[1] = molecular target: T1, MptpA (Mycobacterium tuberculosis, UniProt P9WIA1); assay type: biochemical, M. tuberculosis; conditions: pH 7
T1 construct: made in house; host or cells: E. coli BL21 (pGEX-5X-3)

[2] = molecular target: T2, MptpB (Mycobacterium tuberculosis, UniProt I6WXK4); assay type: biochemical, M. tuberculosis; conditions: pH 5.6
T2 construct: made in house; host or cells: E. coli BL21 (pGEX-5X-3)
T2 sequence (I6WXK4 whole entry, looked up): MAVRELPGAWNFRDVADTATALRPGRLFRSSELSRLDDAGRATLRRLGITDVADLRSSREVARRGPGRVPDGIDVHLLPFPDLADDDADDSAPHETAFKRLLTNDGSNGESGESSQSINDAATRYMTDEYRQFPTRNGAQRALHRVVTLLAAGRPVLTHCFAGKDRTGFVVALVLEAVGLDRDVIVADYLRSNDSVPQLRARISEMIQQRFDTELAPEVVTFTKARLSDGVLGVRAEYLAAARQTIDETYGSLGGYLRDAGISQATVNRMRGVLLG

T1 sequence (P9WIA1 whole entry): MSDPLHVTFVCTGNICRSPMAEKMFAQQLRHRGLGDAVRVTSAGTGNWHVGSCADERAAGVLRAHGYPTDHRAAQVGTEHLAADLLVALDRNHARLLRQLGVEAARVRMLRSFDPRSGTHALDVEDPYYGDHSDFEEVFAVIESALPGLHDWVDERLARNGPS

| Compound | Effect of inhibitor on the activity of MptpA towards tyrosine phosphorylated MBP [1] | Effect of inhibitor on the activity of MptpB towards tyrosine phosphorylated MBP [2] |
| --- | --- | --- |
| [Na+].[Na+].[Na+].[O]=[V]([O-])([O-])[O-] [sodium orthovanadate] | inhibited | inhibited |
| c1ccc(C2CN3CCSC3=N2)cc1 (stereo not shown) [tetramisole] | had no effect; also recorded: insensitive | had no effect; also recorded: insensitive |
| O=C(O)C(O)C(O)C(=O)O (stereo not shown) [tartrate] | had no effect; also recorded: insensitive | had no effect; also recorded: insensitive |
| C=C1[C@@H](O)[C@@H]2O[C@]3(CC[C@H](/C=C/[C@@H](C)[C@@H]4CC(C)=C[C@@]5(O[C@H](C[C@@](C)(O)C(=O)O)CC[C@H]5O)O4)O3)CC[C@H]2O[C@@H]1[C@@H](O)C[C@H](C)[C@H]1O[C@@]2(CCCCO2)CC[C@H]1C [okadaic acid] | had no effect; also recorded: did not inhibit | had no effect; also recorded: did not inhibit |
| [F-].[Na+] [sodium fluoride] | had no effect | had no effect |
